Experimental data taken from patent US10155751B2, “Pyrazolyl-substituted heteroaryls and their use as medicaments” (Boehringer Ingelheim International GmbH, priority 2015, dated 2018).

Assays:
[1] = biological target: Recombinant human SYK (amino acids 342-635), GST-SYK kinase fusion protein (Homo sapiens (Human), UniProt P43405); assay: SYK kinase inhibition test (Kinase Glo luminescence); format: biochemical; settings: read-out: SYK inhibition IC50-value (chapter 5.1)
Procedure: The catalytic activity of the GST-SYK kinase fusion protein was determined using the Kinase Glo® Luminescence Kinase test (Promega; V6712). In this homogeneous test the amount of ATP remaining after the kinase reaction is quantified by a luciferin-luciferase reaction using luminescence. The luminescence signal obtained correlates with the amount of ATP still present and thus correlates inversely with the activity of the kinase.
The test compounds were dissolved in 100% DMSO at a concentration of 10 mM and diluted in DMSO to a concentration of 1 mM. Serial Dilution is done in 100% DMSO. All further dilutions of the substances were carried out with test buffer (25 mM HEPES pH7.5; 25 mM MgCl2; 5 mM MnCl2; 50 mM KCl; 0.2% HSA; 0.01% CHAPS; 100 μM Na3VO4; 0.5 mM DTT). Dilution steps and concentration range were adapted according to need. 7 μl aliquots of these dilutions were transferred into a 384-well Optiplate (Perkin Elmer, #6007290). GST-SYK was diluted to 12 nM in the test buffer and 5 μl of this dilution were used in the kinase test (final concentration of SYK=4 nM in a total volume of 15 μl). After 15 minutes incubation at room temperature 3 μl of a mixture of 750 nM ATP and 100 μg/ml poly (L-Glutamic acid L-Tyrosine 4:1), Fluka #81357) in test buffer were added to each well and the incubation was continued for a further 60 minutes at room temperature.
(§1) Positive controls are the reaction mixtures that contain no test substance; negative controls (blanks) are reaction mixtures that contain no kinase.
After 60 minutes, 10 μl Kinase-Glo® solution (Promega, Cat. # V6712) (heated to room temperature) were added to each well and incubation was continued for a further 15 minutes. The plates were read in Envision Luminescence Reader (Perkin-Elmer).
The output file of the reader is a csv file that contains the well number and measured relative light units (RLU). For data evaluation and calculation, the measurement of the negative control was set as 100% ctrl and the measurement of the positive control was set as 0% ctrl. Based on this values the % value for the measurement of each substance concentration was calculated using an Assay Explorer software (Accelrys). Normally, the % ctrl values calculated are between 0% and 100% values but may also occur outside these limits in individual cases based on variability or compound characteristics. The IC50-values were calculated from the % ctrl values using Assay Explorer software. Calculation: [y=(a−d)/(1+(x/c)^b)+d] a=low value, d=high value; x=conc M; c=IC50 M; b=hill; y=% ctrl.
Satisfying SYK inhibitory capacities are represented by an IC50(SYK)-Value measured by this assay of <10 nMol.

[2] = biological target: Recombinant human FLT3 (amino acids 564-958) (Homo sapiens (Human), UniProt P36888); assay: FLT3 kinase test (ADP Glo); format: biochemical; settings: read-out: FLT3 inhibition IC50-value (chapter 5.4)
Recombinant human FLT3 (amino acids 564-958), sequence (P36888 564-958): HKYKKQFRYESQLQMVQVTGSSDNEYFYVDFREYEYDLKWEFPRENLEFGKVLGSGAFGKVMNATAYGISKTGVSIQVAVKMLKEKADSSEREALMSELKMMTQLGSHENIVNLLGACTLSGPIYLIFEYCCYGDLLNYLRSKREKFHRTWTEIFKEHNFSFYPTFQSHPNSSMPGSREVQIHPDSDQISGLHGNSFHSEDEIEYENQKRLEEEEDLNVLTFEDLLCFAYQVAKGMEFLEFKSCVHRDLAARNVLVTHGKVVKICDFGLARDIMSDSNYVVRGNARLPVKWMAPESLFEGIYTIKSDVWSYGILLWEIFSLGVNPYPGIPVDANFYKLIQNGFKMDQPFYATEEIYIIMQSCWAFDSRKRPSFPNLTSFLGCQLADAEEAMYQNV
Procedure: The activity of the FLT3 kinase protein was determined using the ADP Glo® Luminescence Kinase test (Promega; V9103X). In this homogeneous test the amount of ADP remaining after the kinase reaction is quantified by a luciferin-luciferase reaction using luminescence. The luminescence signal obtained correlates with the amount of ADP still present and thus correlates with the activity of the protein kinase.
The test compounds were dissolved in 100% DMSO at a concentration of 10 mM and diluted in DMSO to a concentration of 5 mM. Serial Dilution is done in 1:10 steps in 100% DMSO. All further dilutions of the substances were carried out with test buffer (50 mM Hepes, pH 7.5, 10 mM MgCl2, 1 mM EGTA, 0.01% Brij35, 0.1% BSA) until a concentration was reached which was 2.5 times above the final test concentration (final concentration of the compounds: 50 μM to 0.005 nM). […] FLT3 enzyme was diluted to 5 nM in the test buffer and 4 μl of this dilution were used in the kinase test (final concentration of FLT3=2 nM in a total volume of 10 μl). After 60 minutes incubation at room temperature 2 μl mixture of 2.5 mg/ml substrate (Poly-Glu/Tyr; Sigma #P0275) and 2.5 mM ultra-pure ATP (Promega #V915B) in test buffer were added to each well and the incubation was continued for a further 90 minutes at room temperature.
as §1
After 90 minutes, 10 μl ADP-Glo® solution (ADP-Glo Reagent #V912B Promega) (heated to room temperature) were added to each well and incubation was continued for a further 60. minutes. Then 20 μl Kinase detection mix (Detection Buffer #V913B Promega; Kinase Detection Substrate #V914B Promega) were added and incubated for 40 minutes at room temperature. The plates were read in Envision Luminescence Reader (Perkin-Elmer).
The output file of the reader is a csv file that contains the well number and measured RLU. For data evaluation and calculation, the measurement of the negative control was set as 0% ctrl and the measurement of the positive control was set as 100% ctrl. Based on this values the % value for the measurement of each substance concentration can be calculated using an Assay Explorer software (e.g. Accelrys). Normally, the % ctrl values calculated are between 0% and 100% values but may also occur outside these limits in individual cases based on variability or compound characteristics. The IC50 values were calculated from the % ctrl values using Assay Explorer software. Calculation: [y=(a−d)/(1+(x/c)^b)+d], a=low value, d=high value; x=conc. M; c=IC50 M; b=hill; y=% ctrl.

For `C[C@@H](Oc1cc(-c2cnn(C3CCC3)c2)cc2nn(C)c(F)c12)[C@H]1CNC(=O)C1` [Example 1, (R)-4-{(R)-1-[6-(1-Cyclobutyl-1H-pyrazol-4-yl)-3-fluoro-2-methyl-2H-indazol-4-yloxy]-ethyl}-pyrrolidin-2-one], the IC50 [1] was 1 nM and the IC50 [2] was 2230 nM.

`CC(C)n1cc(-c2cc(O[C@H](C)[C@H]3CNC(=O)C3)c3c(F)n(C)nc3c2)cn1` [Example 2, (R)-4-{(R)-1-[3-Fluoro-6-(1-isopropyl-1H-pyrazol-4-yl)-2-methyl-2H-indazol-4-yloxy]-ethyl}-pyrrolidin-2-one] gave an IC50 [1] of 1.3 nM and an IC50 [2] of 2830 nM.

Compound `Cc1c2c(O[C@H](C)[C@H]3CNC(=O)O3)nc(-c3cnn(C(C)(C)C)c3)cc2nn1C` [Example 3, (R)-5-{(R)-1-[6-(1-tert-Butyl-1H-pyrazol-4-yl)-2,3-dimethyl-2H-pyrazolo[4,3-c]pyridin-4-yloxy]-ethyl}-oxazolidin-2-one] has an IC50 [1] of 2 nM and an IC50 [2] of 1340 nM.

`Cc1c2c(O[C@H](C)[C@H]3CNC(=O)C3)nc(-c3c[nH]nc3C(C)(C)C)cc2nn1C` [Example 4, (R)-4-{(R)-1-[6-(3-tert-Butyl-1H-pyrazol-4-yl)-2,3-dimeth-yl-2H-pyrazolo[4,3-c]pyridin-4-yloxy]-ethyl}-pyrrolidin-2-one] was tested, and the IC50 [1] was 2.2 nM and the IC50 [2] was 7410 nM.

Work on `C[C@@H](Oc1cc(-c2cnn(C3CC3)c2)cc2nn(C)c(F)c12)[C@H]1CNC(=O)C1` [Example 5, (R)-4-{(R)-1-[6-(1-Cycloprop-yl-1H-pyrazol-4-yl)-3-fluoro-2-methyl-2H-indazol-4-yloxy]-ethyl}-pyrrolidin-2-one] yielded an IC50 [1] of 3.3 nM and an IC50 [2] of 3990 nM.

For `C[C@@H](Oc1cc(-c2cnn(CC3CC3)c2)cc2nn(C)c(F)c12)[C@H]1CNC(=O)C1` [Example 6, (R)-4-{(R)-1-[6-(1-Cycloprop-ylmethyl-1H-pyrazol-4-yl)-3-fluoro-2-methyl-2H-indazol-4-yloxy]-ethyl}-pyrrolidin-2-one], the IC50 [1] was 2.6 nM and the IC50 [2] was 3730 nM.

Work on `C[C@@H](Oc1cc(-c2cnn(C3CCC(F)(F)C3)c2)cc2nn(C)c(F)c12)[C@H]1CNC(=O)C1` (some centres unmarked) [Example 7] yielded an IC50 [1] of 1.3 nM and an IC50 [2] of 2440 nM.

For `Cc1c2c(O[C@H](C)[C@H]3CNC(=O)C3)cc(-c3cnn(CC4CC4)c3)cc2nn1C` [Example 8, (R)-4-{(R)-1-[6-(1-Cyclopropylmethyl-1H-pyrazol-4-yl)-2,3-dimethyl-2H-indazol-4-yloxy]-ethyl}-pyrrolidin-2-one], the IC50 [1] was 1.4 nM and the IC50 [2] was 2070 nM.

`Cc1c2c(O[C@H](C)[C@H]3CNC(=O)C3)cc(-c3cnn([C@@H]4CCOC(C)(C)C4)c3)cc2nn1C` [Example 9, (R)-4-((R)-1-{6-[1-((R)-2,2-Dimethyl-tetrahydro-pyran-4-yl)-1H-pyrazol-4-yl]-2,3-dimethyl-2H-indazol-4-yloxy}-ethyl)-pyrrolidin-2-one] gave an IC50 [1] of 1.1 nM and an IC50 [2] of 1840 nM.

Work on `Cc1c2c(O[C@H](C)[C@H]3CNC(=O)C3)cc(-c3cnn([C@H]4CO[C@@H]5CCCO[C@@H]54)c3)cc2nn1C` [Example 10, 4-(1-{6-[(R)-(3S,3aR,7aR)-1-(Hexahydro-furo[3,2-b]pyran-3-yl)-1H-pyrazol-4-yl]-2,3-dimethyl-2H-indazol-4-yloxy}-ethyl)-pyrrolidin-2-one] yielded an IC50 [1] of 3.3 nM and an IC50 [2] of 2020 nM.

With `Cc1c2c(O[C@H](C)[C@H]3CNC(=O)C3)cc(-c3cnn(CCF)c3)cc2nn1C` [Example 11, (R)-4-((R)-1-{6-[1-(2-Fluoro-ethyl)-1H-pyrazol-4-yl]-2,3-dimethyl-2H-indazol-4-yloxy}-ethyl)-pyrrolidin-2-one] the IC50 [1] was 1.5 nM and the IC50 [2] was 3480 nM.

Compound `C[C@@H](Oc1cc(-c2cnn(CCC(F)(F)F)c2)cc2nn(C)c(F)c12)[C@H]1CNC(=O)C1` [Example 12, (R)-4-((R)-1-{3-Fluoro-2-methyl-6-[1-(3,3,3-trifluoro-propyl)-1H-pyrazol-4-yl]-2H-indazol-4-yloxy}-ethyl)-pyrrolidin-2-one] has an IC50 [1] of 2.9 nM and an IC50 [2] of 5030 nM.

`Cc1c2c(O[C@H](C)[C@H]3CNC(=O)C3)cc(-c3cnn(C(C)(C)C)c3)cc2nn1C` [Example 13, (R)-4-{(R)-1-[6-(1-tert-Butyl-1H-pyrazol-4-yl)-2,3-dimethyl-2H-indazol-4-yloxy]-ethyl}-pyrrolidin-2-one] showed an IC50 [1] of 0.9 nM and an IC50 [2] of 5220 nM.

For `C[C@@H](Oc1cc(-c2cnn(C3CC(C)(C)OC3(C)C)c2)cc2nn(C)c(F)c12)[C@H]1CNC(=O)C1` (stereo partly drawn) [Example 14, (R)-4-((R)-1-{3-Fluoro-2-methyl-6-[1-(2,2,5,5-tetramethyl-tetrahydro-furan-3-yl)-1H-pyrazol-4-yl]-2H-indazol-4-yloxy}-ethyl)-pyrrolidin-2-one], the IC50 [1] was 3.2 nM and the IC50 [2] was 4050 nM.

`Cc1c2c(O[C@H](C)[C@H]3CNC(=O)C3)cc(-c3cnn(C4CC(C)(C)OC4(C)C)c3)cc2nn1C` (stereo partly drawn) [Example 16, (R)-4-((R)-1-{2,3-Dimethyl-6-[1-(2,2,5,5-tetramethyl-tetrahydro-furan-3-yl)-1H-pyrazol-4-yl]2H-indazol-4-yloxy}-ethyl)-pyrrolidin-2-one] showed an IC50 [1] of 3.1 nM and an IC50 [2] of 3490 nM.

With `Cc1c2c(O[C@H](C)[C@H]3CNC(=O)C3)cc(-c3cnn(C(C)(C)C#N)c3)cc2nn1C` [Example 17, 2-(4-{2,3-Dimethyl-4-[(R)-1-((R)-5-oxo-pyrrolidin-3-yl)-ethoxy]-2H-indazol-6-yl}-pyrazol-1-yl)-2-methyl-propionitrile] the IC50 [1] was 2.9 nM and the IC50 [2] was 11300 nM.

`Cc1c2c(O[C@H](C)[C@H]3CNC(=O)C3)cc(-c3cnn(C(C)C)c3)cc2nn1C` [Example 18, (R)-4-{(R)-1-[6-(1-Isopropyl-1H-pyrazol-4-yl)-2,3-dimethyl-2H-indazol-4-yloxy]-ethyl}-pyrrolidin-2-one] showed an IC50 [1] of 1.1 nM and an IC50 [2] of 4670 nM.

With `Cc1c2c(O[C@H](C)[C@H]3CNC(=O)C3)cc(-c3cnn(CC(C)C)c3)cc2nn1C` [Example 19, (R)-4-{(R)-1-[6-(1-Isobutyl-1H-pyrazol-4-yl)-2,3-dimethyl-2H-indazol-4-yloxy]-ethyl}-pyrrolidin-2-one] the IC50 [1] was 1.8 nM and the IC50 [2] was 4950 nM.

Compound `Cc1c2c(O[C@H](C)[C@H]3CNC(=O)C3)cc(-c3cnn(C4CC4)c3)cc2nn1C` [Example 20, (R)-4-{(R)-1-[6-(1-Cyclopropyl-1H-pyrazol-4-yl)-2,3-dimethyl-2H-indazol-4-yloxy]-ethyl}-pyrrolidin-2-one] has an IC50 [1] of 2.5 nM and an IC50 [2] of 3320 nM.
